Results taken from patent US20250213547A1, “METHODS OF TREATING NEUROLOGICAL DISEASES” (priority 2022, published 2025).
Read-outs that look alike come from different tables or passages of the source.

What was measured:
[1] = Healthy Japanese subjects, Part 1 (single dose 200, 600, 1200 mg tablets): PK of TAK-935 and M-I; type: in vivo, human; details: plasma; for Vd/F: read-out: Vz/F; for half-life: read-out: t1/2z (terminal disposition phase half-life) (converted); for AUC: read-out: Mean AUC24
Protocol: This study consisted of 2 parts, and was a randomized, double-blind, placebo-controlled study to assess safety, tolerability, and PK and PD of TAK-935 when administered orally in healthy Japanese subjects.
On Day 1 of each dose level, a single dose of TAK-935 or placebo was administered, and safety, PK and PD were evaluated.
After the screening visit, eligible participants checked—in on Day-2. On Day 1, eligible participants were randomized 6:2 to TAK-935 or placebo in each dose group in double-blinded fashion. No stratification variables were used for randomization. On the same day, study drug was administered by oral administration of single dosing of TAK-935 to each cohort at each dose level. The subjects were discharged on Day 3. Intensive PK samplings were performed from Day 1 to Day 3.
Subjects received a single dose of TAK-935 or placebo of 200 mg, 600 mg, or 1200 mg with 150 mL of water, after fasting for at least 10 hours and remained fasted until 4 hours after dosing.
Blood samples for PK analysis of TAK-935 and its metabolites (M-I) were collected into blood collection tubes (vacutainer) containing the anticoagulant K2EDTA (Table 40e and Table 40f).
The PK parameters of TAK-935 and its metabolites (M-I) were determined from the concentration-time profiles for all evaluable subjects. Actual sampling times, rather than scheduled sampling times, were used in all computations involving sampling times. The following PK parameters were calculated from plasma concentrations of TAK-935 and its metabolites (M-I), unless otherwise specified: […]

[2] = Adult DEE patients (Part A/Part B): safety and tolerability; type: in vivo, human
From the text: The third clinical trial was a randomized, double-blind, placebo controlled study. […] After the completion of Part A, 16 patients continued in Part B with open-label treatment for 60 additional days. Patients were included in the trial if they were 18-65 years of age with an established diagnosis of DEE, such as Lennox-Gastaut syndrome, Dravet syndrome, or tuberous sclerosis complex. For enrollment, patients were required to have had at least two bilateral motor seizures per month in the three months prior. In addition, during the 4-week baseline period prior to dosing, patients were required to have incurred at least one bilateral motor seizure. Exclusion criteria included abnormal ECG, degenerative eye disease, or admission to emergency care for treatment of status epilepticus that required mechanical ventilation.
Only patients having at least one bilateral seizure during the baseline study were eligible to continue. […] The range of seizure types included tonic-clonic, drop seizures, tonic, atonic, bilateral clonic, myoclonic-atonic, myotonic-tonic-clonic, and focal seizures. Aside from seizure history, subjects were also enrolled based on an establish diagnosis of DEE, such as Lennox-Gastaut syndrome (LGS) and Dravet syndrome (DS), tuberous sclerosis complex, and a history of special education or an overall intellectual quotient of <70. […] Subjects could continue taking 1-4 anti-seizure medicines (ASM), with the exception of stiripentol, during the study. […]
The safety and tolerability assessments included blood pressure, heart rate, respiratory rate, temperature, treatment-emergent adverse effects, clinical laboratory tests, electrocardiogram data, neurological and ophthalmic examination, and the Columbia-suicide severity rating scale (C-SSRS).
Patients were dosed 100 mg, 200 mg, or 300 mg BID. Dosage (mg BID) in each interval reflects the final dose during that interval. Fields showing 0 mg in days 1-10, 11-20, and 21-30 intervals are patients who were assigned to the placebo group in Part A of the study.

[3] = TAK-935 200 mg single dose, mean
[4] = TAK-935 600 mg single dose, mean
[5] = TAK-935 1200 mg single dose, mean
[6] = human, oral, TAK-935 200 mg single dose, mean
[7] = human, oral, TAK-935 600 mg single dose, mean
[8] = human, oral, TAK-935 1200 mg single dose, mean
[9] = human, oral, TAK-935, single dose 200 mg
[10] = human, oral, TAK-935, single dose 600 mg
[11] = human, oral, TAK-935, single dose 1200 mg

O=C(c1cccnc1-c1ccncc1)N1CCC(O)(Cc2ccccc2)CC1 [soticlestat]
CL/F [1, 3]: 470.8 L/h | Lambda z [1, 3]: 0.1608 h⁻¹ | AUC∞ [1, 4]: 3917 ng·h/mL | CL/F [1, 4]: 178.4 L/h | Lambda z [1, 4]: 0.1634 h⁻¹ | Tmax ([1]; TAK-935 600 mg single dose, median): 30 min | CL/F [1, 5]: 119.8 L/h | Lambda z [1, 5]: 0.1922 h⁻¹ | AUC(0-inf) [1, 6]: 720 ng·h/mL | AUC(0-t) [1, 6]: 695 ng·h/mL | Vd/F [1, 6]: 4260 L | half-life [1, 6]: 353 min | AUC(0-t) [1, 7]: 3860 ng·h/mL | Vd/F [1, 7]: 2340 L | half-life [1, 7]: 522 min | AUC(0-inf) [1, 8]: 11400 ng·h/mL | AUC(0-t) [1, 8]: 11400 ng·h/mL | Vd/F [1, 8]: 769 L | half-life [1, 8]: 304 min | Tmax ([1]; human, oral, 200 mg, TAK-935 200 mg single dose, median, read-out: tmax): 45 min | Tmax ([1]; human, oral, 1200 mg, TAK-935 1200 mg single dose, median, read-out: tmax): 30 min | Tmax ([1]; human, oral, 1200 mg, TAK-935, single dose 200, 600, 1200 mg, read-out: Tmax (median), range): 30 to 45 min | Cmax [1, 9]: 850 ng/mL | AUC [1, 9]: 698 ng·h/mL | Cmax [1, 10]: 3280 ng/mL | AUC [1, 10]: 3860 ng·h/mL | Cmax [1, 11]: 10200 ng/mL | AUC [1, 11]: 11300 ng·h/mL | Upper respiratory tract infection, n participants ([2]; Part A, soticlestat (n = 14)): 2 n | Upper respiratory tract infection, n participants ([2]; Part B open-label, all (n = 16)): 1 n | Dysarthria, n participants ([2]; human, in vivo, 30 days): 3 n | Fatigue, n participants ([2]; human, in vivo, 30 days): 2 n | Headache, n participants ([2]; human, in vivo, 30 days): 2 n | Lethargy, n participants ([2]; human, in vivo, 30 days): 2 n | TEAE incidence ([2]; human, in vivo, 30 days): 71.4% | deaths ([2]; soticlestat arm): no deaths
